Earlier results in patent publication US10993951B2, “Fosfomycin formulation for parenteral administration” (priority 2016, dated 2021).
Counter-ions that a name gives are not always drawn.

Conditions: cited from earlier work

For `C[C@@H]1O[C@@H]1P(=O)(O)O` [Fosfomycin disodium salt, fosfomycin disodium salt], the solubility in water is given as “highly soluble”.
